In US20220273752A1, “MODULATION OF DENDRITIC CELL FUNCTION BY THE PHOSPHOLIPID MESSENGER LPA” (Cornell University, priority 2019, published 2022):

How the values were obtained:
Type in all cases: cell-based, murine
BMDCs, sDCs and pDCs = assay: IFN-β ELISA in DCs stimulated with TLR agonists; conditions: Poly (I:C), LPS or CpG ODN1585, LPA 10 uM and 100 uM
Description: FIG. 12A-12D illustrate that LPA represses IFN-β production by diverse DC types. Splenic dendritic cells (sDCs), bone marrow dendritic cells (BMDCs) and plasmacytoid dendritic cells (pDCs) were stimulated with Poly (I:C) (a high molecular weight, synthetic analog of double-stranded RNA (dsRNA) that is a potent inducer of interferon), LPS (lipopolysaccharide) or CpG ODN1585 (a synthetic immunostimulatory oligonucleotide) in the presence or absence of LPA (10 uM and 100 uM). IFN-β protein expression levels were determined by ELISA. **P<0.001, ***P<0.0005, ****P<0.0001. FIG. 12A illustrates IFN-β protein expression in splenic DCs (sDCs) after treatment with LPA and/or Poly (I:C). FIG. 12B illustrates IFN-β protein expression in bone marrow dendritic cells (BMDCs) after treatment with LPA and/or Poly (I:C). FIG. 12C illustrates IFN-β protein expression in bone marrow dendritic cells (BMDCs) after treatment with LPS and/or LPA. FIG. 12D illustrates IFN-β protein expression in plasmacytoid DCs (pDCs) after treatment with ODN1585 and/or LPA.
These effects also occurred in diverse DC types such as BMDCs, splenic DCs (sDCs) and plasmacytoid DCs (pDCs) during stimulation through Toll-like Receptors (TLRs) or upon exposure to cancer cells treated with inhibitors of poly ADP-ribose polymerase (PARP) that induce DNA damage. […] The structure of Talazoparib is shown below.

[1] = system: bone marrow-derived dendritic cells (BMDCs); assay: Bodipy 493/503 staining of intracellular lipids in BMDCs by FACS; conditions: 100 μM LPA, 6 hours
From the text: Bodipy 493/503 staining was used to detect intracellular lipids by FACS. ***P<0.0005. FIG. 2B graphically illustrates quantities of Bodipy-stained intracellular lipids in LPA-treated cells compared to untreated cells.

[2] = system: bone marrow-derived dendritic cells (BMDCs); assay: Antigen presentation: OVA-pulsed BMDCs co-cultured with CFSE-labeled OT-II T cells; conditions: 100 μM LPA, 6 hours, then OVA 3 hours, OT-II T cell proliferation 3 days later
Description: FIG. 3A-3C illustrate that LPA inhibits the antigen-presenting capacity of dendritic cells. Bone marrow-derived dendritic cells (BMDCs) were exposed to 100 μM LPA for 6 hours and then pulsed with full-length ovalbumin (OVA) for 3 hours.
Cells were washed and co-cultured with OVA-specific OT-II T cells labeled with carboxyfluorescein succinimidyl ester (CFSE, which stains intracellular molecules, typically lysine residues). T cell proliferation was assessed by FACS 3 days later.
FIG. 3C graphically illustrates the division index of proliferating cells as determined by FlowJo analysis. ****P<0.0001.

BMDCs = assay: RT-qPCR of type-I IFN target genes in BMDCs
Description: FIG. 11A-11H illustrate that LPA downregulates type-I IFN target genes in dendritic cells. BMDCs were left untreated or incubated with LPA (100 uM) for 2 hours and 6 hours, and gene expression was determined by RT-qPCR. **P<0.001, ***P<0.0005, ****P<0.0001. FIG. 11A illustrates downregulation of Ddx58 mRNA (encoding DExD/H-box helicase 58) relative to Actb expression at 2 hours and 6 hours after LPA treatment of BMDCs. FIG. 11B illustrates downregulation of Ifit1 mRNA (encoding interferon-induced protein with tetratricopeptide repeats 1) relative to Actb expression at 2 hours and 6 hours after LPA treatment of BMDCs. FIG. 11C illustrates downregulation of Ifit2 mRNA (encoding interferon-induced protein with tetratricopeptide repeats 2) relative to Actb expression at 2 hours and 6 hours after LPA treatment of BMDCs. FIG. 11D illustrates downregulation of Isg15 mRNA (interferon-stimulated gene 15) relative to Actb expression at 2 hours and 6 hours after LPA treatment of BMDCs. FIG. 11E illustrates downregulation of Ciita mRNA (encoding a Class II Major Histocompatibility Complex Transactivator) relative to Actb expression at 2 hours and 6 hours after LPA treatment of BMDCs. FIG. 11F illustrates downregulation of Oas1a mRNA (encoding 2′-5′ oligoadenylate synthetase 1A) relative to Actb expression at 2 hours and 6 hours after LPA treatment of BMDCs. […]

Substance: lysophosphatidic acid [LPA]
- IFN-β protein levels upon TLR agonist stimulation (BMDCs, sDCs and pDCs): decreased levels
- intracellular lipid accumulation in dendritic cells [1]: induces intracellular lipid accumulation
- antigen-presenting capacity of dendritic cells [2]: inhibits
- type-I IFN target gene expression (Ddx58, Ifit1, Ifit2, Isg15, Ciita, Oas1a, Oas1g, Oas2) (BMDCs; BMDCs, LPA 100 uM, 2 hours and 6 hours): decreased
- expression of type-I IFN-related genes in BMDCs exposed to Talazoparib-treated ovarian cancer cells (BMDCs; coculture): prevented expression
